Measurements taken from US20240116985A1, “STAPLED PEPTIDES AND METHODS THEREOF” (priority 2020, published 2024).
Where two headings read alike, the source gives them in different places.

How the values were obtained:
[1] = biological target: T1, beta-catenin/TCF4 engagement (Homo sapiens, UniProt P35222); assay: Nano-BRET target engagement assay (B-cat-Halo & TCF4-Luc in HEK293 cells); assay type: cell-based
T1 construct: expressed in transfected cells; host or cells: HEK293
T1 sequence (P35222 1-781): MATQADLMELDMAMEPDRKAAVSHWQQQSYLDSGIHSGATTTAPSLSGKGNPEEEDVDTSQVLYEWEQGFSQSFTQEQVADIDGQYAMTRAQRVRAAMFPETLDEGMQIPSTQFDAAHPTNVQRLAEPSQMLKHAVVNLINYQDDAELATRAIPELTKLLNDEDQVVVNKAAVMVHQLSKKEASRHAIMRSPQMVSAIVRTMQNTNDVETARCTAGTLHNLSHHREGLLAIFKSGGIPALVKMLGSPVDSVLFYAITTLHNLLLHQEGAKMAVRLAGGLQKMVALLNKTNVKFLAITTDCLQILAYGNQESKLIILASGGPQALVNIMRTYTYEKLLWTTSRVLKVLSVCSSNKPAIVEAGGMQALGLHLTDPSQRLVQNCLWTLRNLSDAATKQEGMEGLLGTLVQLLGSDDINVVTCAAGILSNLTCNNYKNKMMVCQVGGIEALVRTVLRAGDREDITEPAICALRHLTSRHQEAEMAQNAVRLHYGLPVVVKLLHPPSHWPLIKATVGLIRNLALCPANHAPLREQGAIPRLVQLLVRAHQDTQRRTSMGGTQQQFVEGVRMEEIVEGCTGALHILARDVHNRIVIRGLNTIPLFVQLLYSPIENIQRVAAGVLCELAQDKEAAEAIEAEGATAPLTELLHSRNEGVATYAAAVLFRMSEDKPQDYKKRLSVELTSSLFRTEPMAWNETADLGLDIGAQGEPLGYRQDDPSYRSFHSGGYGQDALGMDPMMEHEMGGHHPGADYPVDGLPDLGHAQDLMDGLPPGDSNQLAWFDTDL

[2] = biological target: T2, full-length beta-Catenin (Uniprot ID P35222) (Homo sapiens, UniProt P35222); assay: Fluorescence polarization IC50 (beta-catenin / 5FAM-TCF4 10-53 competition); assay type: binding
T2 construct: 10 nM full-length beta-Catenin (Uniprot ID P35222)
T2 sequence (P35222 1-781): T1 sequence (P35222 1-781)

[3] = absolute IC50, read-out: NanoBRET Abs IC50
[4] = fluorescence polarization; read-out: beta-Catenin FP IC50

Compound | IC50 [1, 3] [µM] | IC50 [2, 4] [nM] | IC50 ([1]; read-out: NanoBRET Abs IC50) [µM] | other results
CC(=O)N1CCC[C@]12CC=CCCCC1(CCCC=CCCCOC(=O)N3CC[C@@](C(=O)N[C@@H](Cc4ccsc4)C(=O)N[C@@H](Cc4csc5ccccc45)C(=O)N[C@@H](CO)C(N)=O)(C3)NC(=O)[C@H](CC(C)C)NC(=O)[C@H](Cc3ccccc3)NC(=O)[C@H](C)NC(=O)[C@H](C)NC(=O)[C@H](Cc3ccccc3C(=O)O)NC(=O)[C@H](CC(=O)O)NC1=O)NC(=O)[C@H](CC(C)(C)C)NC(=O)[C@H](CC(=O)O)NC2=O (single isomer, unassigned) [I-1666, Ac-PL3-Asp-Npg-B5-Asp-2COOHF-Ala-Ala-Phe-Leu-PyrS2-3Thi-BztA-Ser-NH2] | 6.5 | 15 |  | 
CC(=O)N1CCC[C@]12CC=CCCCC1(CCCC=CCCCOC(=O)N3CC[C@@](C(=O)N[C@@H](Cc4ccsc4)C(=O)N[C@@H](Cc4csc5ccccc45)C(=O)N[C@@H](CCC(N)=O)C(N)=O)(C3)NC(=O)[C@H](CC(C)C)NC(=O)[C@H](Cc3ccccc3)NC(=O)[C@H](C)NC(=O)[C@H](C)NC(=O)[C@H](CCN(CCCC(F)(F)F)CC(=O)O)NC(=O)[C@H](CC(=O)O)NC1=O)NC(=O)[C@H](CC(C)(C)C)NC(=O)[C@H](CC(=O)O)NC2=O (stereo partly drawn) [I-1837, Ac-PL3-Asp-Npg-B5-Asp-[Tfb]GAbu-Ala-Ala-Phe-Leu-PyrS2-3Thi-BztA-Gln-NH2] | 18.5 | 19 |  | 
CC(=O)N1CCC[C@]12CC=CCCCC1(CCCC=CCCCOC(=O)N3CC[C@@](C(=O)N[C@@H](Cc4ccsc4)C(=O)N[C@@H](Cc4ccc(F)c(Br)c4)C(=O)N[C@@H](C)C(N)=O)(C3)NC(=O)[C@H](C(C)C)NC(=O)[C@H](Cc3ccccc3)NC(=O)[C@H](C)NC(=O)[C@H](CCC(N)=O)NC(=O)[C@H](Cc3cccc(C(=O)O)c3)NC(=O)[C@H](CC(=O)O)NC1=O)NC(=O)[C@H](CC(C)(C)C)NC(=O)[C@H](CC(=O)O)NC2=O (stereo partly drawn) [I-2288, Ac-PL3-Asp-Npg-B5-Asp-3COOHF-Gln-Ala-Phe-Val-PyrS2-3Thi-3Br4FF-Ala-NH2] | 6.7 | 5 |  | 
CC(=O)N1CCC[C@]12CC=CCCCC1(CCCC=CCCCOC(=O)N3CC[C@@](C(=O)N[C@@H](Cc4ccccc4C(F)(F)F)C(=O)N[C@@H](Cc4csc5ccccc45)C(=O)N[C@@H](CCC(=O)N(C)C)C(N)=O)(C3)NC(=O)[C@H](CCC(=O)N(C)C)NC(=O)[C@H](Cc3ccccc3)NC(=O)[C@H](C)NC(=O)[C@H](C)NC(=O)[C@H](Cc3cccc(C(=O)O)c3)NC(=O)[C@H](CC(=O)O)NC1=O)NC(=O)[C@H](CC(C)(C)C)NC(=O)[C@H](CC(=O)O)NC2=O (stereo partly drawn) [I-2536, Ac-PL3-Asp-Npg-B5-Asp-3COOHF-Ala-Ala-Phe-Me2Gln-PyrS2-2F3MeF-BztA-Me2Gln-NH2] | 4.5 | 13 |  | 
CCCC[C@@H]1NC(=O)[C@H](Cc2cccc(C(=O)O)c2)NC(=O)[C@H](CC(=O)O)NC(=O)C2(CCCC=CCCCOC(=O)N3CC[C@@](C(=O)N[C@@H](Cc4ccsc4)C(=O)N[C@@H](Cc4csc5ccccc45)C(=O)N[C@@H](CC(C)(C)C)C(N)=O)(C3)NC(=O)[C@H](CC(C)C)NC(=O)[C@H](Cc3ccccc3)NC(=O)[C@H](C)NC1=O)CCCC=CC[C@]1(CCCN1C(C)=O)C(=O)N[C@@H](CC(=O)O)C(=O)N[C@@H](CC(C)(C)C)C(=O)N2 (stereo partly drawn) [I-2193, Ac-PL3-Asp-Npg-B5-Asp-3COOHF-nLeu-Ala-Phe-Leu-PyrS2-3Thi-BztA-Npg-NH2] |  | 164 | 39.9 | 
CC(=O)N1CCC[C@]12CC=CCCCC1(CCCC=CCCCOC(=O)N3CC[C@@](C(=O)N[C@@H](Cc4ccccc4)C(=O)N[C@@H](Cc4csc5ccccc45)C(=O)N[C@@H](CC(=O)N4CCOCC4)C(N)=O)(C3)NC(=O)[C@H](CC(C)C)NC(=O)[C@H](Cc3ccccc3)NC(=O)[C@H](C)NC(=O)[C@H](CCCCNC(=O)c3ccccc3)NC(=O)[C@H](CCC(N)=O)NC(=O)[C@H](CC(=O)O)NC1=O)NC(=O)[C@H](CC1CCCCC1)NC(=O)[C@H](CC(N)=O)NC2=O (stereo partly drawn) [I-2523, Ac-PL3-Asn-Cha-B5-Asp-Gln-[Phc]Lys-Ala-Phe-Leu-PyrS2-Phe-BztA-MorphAsn-NH2] |  |  |  | IC50 ([1]; NanoBRET Abs IC50 (uM), absolute IC50): > 20 µM; IC50 ([2]; beta-Catenin FP IC50 (nM), fluorescence polarization): 1730 nM
CC(=O)N1CCC[C@]12CC=CCCCC1(CCCC=CCCCOC(=O)N3CC[C@@](C(=O)N[C@@H](Cc4ccsc4)C(=O)N[C@@H](Cc4csc5ccccc45)C(=O)N[C@@H](CCC(N)=O)C(N)=O)(C3)NC(=O)[C@H](CC(C)C)NC(=O)[C@H](Cc3ccccc3)NC(=O)[C@H](C)NC(=O)[C@H](C)NC(=O)[C@H](CC(=O)O)NC(=O)[C@H](CC(=O)O)NC1=O)NC(=O)[C@H](CC(C)(C)C)NC(=O)[C@H](CC(=O)OCCSSc1ccccc1)NC2=O (stereo partly drawn) [I-1952, Ac-PL3-[EtSSPh]AspE-Npg-B5-Asp-Asp-Ala-Ala-Phe-Leu-PyrS2-3Thi-BztA-Gln-NH2] |  |  | > 20 | IC50 ([2]; read-out: beta-Catenin FP IC50; fluorescence polarization): 923 nM
CC(=O)N1CCC[C@]12CC=CCCCC1(CCCC=CCCCOC(=O)N3CC[C@@](C(=O)N[C@@H](Cc4ccsc4)C(=O)N[C@@H](Cc4csc5ccccc45)C(=O)N[C@@H](CCC(N)=O)C(N)=O)(C3)NC(=O)[C@H](CCO)NC(=O)[C@H](Cc3cccc(C(=O)O)c3)NC(=O)[C@H](C)NC(=O)[C@H](C)NC(=O)[C@H](Cc3c[nH]cn3)NC(=O)[C@H](CC(=O)O)NC1=O)NC(=O)[C@H](CC(C)(C)C)NC(=O)[C@H](CC(=O)O)NC2=O (stereo partly drawn) [I-2120, Ac-PL3-Asp-Npg-B5-Asp-His-Ala-Ala-3COOHF-Hse-PyrS2-3Thi-BztA-Gln-NH2] |  | 11 | 37.2 | 
CC(=O)N1CCC[C@]12CC=CCCCC1(CCCC=CCCCOC(=O)N3CC[C@@](C(=O)N[C@@H](Cc4ccsc4)C(=O)N[C@@H](Cc4csc5ccccc45)C(=O)N[C@@H](C)C(N)=O)(C3)NC(=O)[C@H](C)NC(=O)[C@H](Cc3ccccc3)NC(=O)[C@H](C)NC(=O)[C@H](CCC(N)=O)NC(=O)[C@H](Cc3cccc(C(=O)O)c3)NC(=O)[C@H](CC(=O)O)NC1=O)NC(=O)[C@H](CC(C)(C)C)NC(=O)[C@H](CC(=O)O)NC2=O (stereo partly drawn) [I-2053, Ac-PL3-Asp-Npg-B5-Asp-3COOHF-Gln-Ala-Phe-Ala-PyrS2-3Thi-BztA-Ala-NH2] |  | 11 | 5 | 
CC(=O)N1CCC[C@]12CC=CCCCC1(CCCC=CCCCOC(=O)N3CC[C@@](C(=O)N[C@@H](Cc4ccsc4)C(=O)N[C@@H](Cc4csc5ccccc45)C(=O)N[C@@H](CCC(N)=O)C(N)=O)(C3)NC(=O)[C@H](CC(C)C)NC(=O)[C@H](Cc3cccc(C(=O)O)c3)NC(=O)[C@H](C)NC(=O)[C@H](C)NC(=O)[C@H](Cc3c[nH]cn3)NC(=O)[C@H](CC(=O)O)NC1=O)NC(=O)[C@H](CC(C)(C)C)NC(=O)[C@H](CC(=O)O)NC2=O (stereo partly drawn) [I-2122, Ac-PL3-Asp-Npg-B5-Asp-His-Ala-Ala-3COOHF-Leu-PyrS2-3Thi-BztA-Gln-NH2] |  | 12 | 34.4 | 
CC(=O)N1CCC[C@]12CC=CCCCC1(CCCC=CCCCOC(=O)N3CC[C@@](C(=O)N[C@@H](Cc4ccccc4C(F)(F)F)C(=O)N[C@@H](Cc4csc5ccccc45)C(=O)N[C@@H](CCCN4CCOCC4)C(N)=O)(C3)NC(=O)[C@H](CC(C)C)NC(=O)[C@H](Cc3ccccc3)NC(=O)[C@H](C)NC(=O)[C@H](C)NC(=O)[C@H](Cc3cccc(C(=O)O)c3)NC(=O)[C@H](CC(=O)O)NC1=O)NC(=O)[C@H](CC(C)(C)C)NC(=O)[C@H](CC(=O)O)NC2=O (stereo partly drawn) [I-1610, Ac-PL3-Asp-Npg-B5-Asp-3COOHF-Ala-Ala-Phe-Leu-PyrS2-2F3MeF-BztA-MorphNva-NH2] | 4.1 | 19 |  | 
CC(=O)N1CCC[C@]12CC=CCCCC1(CCCC=CCCCOC(=O)N3CC[C@@](C(=O)N[C@@H](Cc4ccccc4C(F)(F)F)C(=O)N[C@H](C(=O)N[C@@H](C)C(N)=O)[C@H](C)c4ccc5ccccc5c4)(C3)NC(=O)[C@H](CC(C)C)NC(=O)[C@H](Cc3ccccc3)NC(=O)[C@H](C)NC(=O)[C@H](CCC(N)=O)NC(=O)[C@H](Cc3cccc(C(=O)O)c3)NC(=O)[C@H](CC(=O)O)NC1=O)NC(=O)[C@H](CC(C)(C)C)NC(=O)[C@H](CC(=O)O)NC2=O (stereo partly drawn) [I-2463, Ac-PL3-Asp-Npg-B5-Asp-3COOHF-Gln-Ala-Phe-Leu-PyrS2-2F3MeF-RbMe2NapA-Ala-NH2] | 6.5 | 47 |  | 
CC(=O)N1CCC[C@]12CC=CCCCC1(CCCC=CCCCOC(=O)N3CC[C@@](C(=O)N[C@@H](Cc4ccsc4)C(=O)N[C@@H](Cc4csc5ccccc45)C(=O)N[C@@H](CCC(N)=O)C(N)=O)(C3)NC(=O)[C@H](CC(N)=O)NC(=O)[C@H](Cc3cccc(C(=O)O)c3)NC(=O)[C@H](C)NC(=O)[C@H](C)NC(=O)[C@H](Cc3c[nH]cn3)NC(=O)[C@H](CC(=O)O)NC1=O)NC(=O)[C@H](CC(C)(C)C)NC(=O)[C@H](CC(=O)O)NC2=O (stereo partly drawn) [I-2118, Ac-PL3-Asp-Npg-B5-Asp-His-Ala-Ala-3COOHF-Asn-PyrS2-3Thi-BztA-Gln-NH2] |  | 21 | > 20 | 
